Earlier results as cited in patent US20140112913A1, “METHODS OF PROGNOSING AND ADMINISTERING TREATMENT FOR INFLAMMATORY DISORDERS” (Genqual Corporation, priority 2011, published 2014).

Conditions: treatment of rheumatoid arthritis; patients who failed adequate treatment with other approved therapies

Q: For “Actemra: anti-IL-6 humanized mAb against soluble and cellular IL-6 receptor”, which “failure rate due to side effects or lack of efficacy” value is on record?
A: around one-third
